Results taken from patent publication US20080004282A1, “Compositions and methods for modulating gated ion channels” (PainCeptor Pharma Corporation, priority 2006, published 2008).
Where two headings read alike, the source gives them in different places.

Legend:
[1] = biological target: T1, ASIC1a (Homo sapiens, UniProt P78348); test: Calcium-imaging (FLIPR) of MES-induced calcium response in ASIC1a expressing HEK293 cells; type: cell-based; parameters: host or cells: HEK293
T1 sequence (P78348 1-528): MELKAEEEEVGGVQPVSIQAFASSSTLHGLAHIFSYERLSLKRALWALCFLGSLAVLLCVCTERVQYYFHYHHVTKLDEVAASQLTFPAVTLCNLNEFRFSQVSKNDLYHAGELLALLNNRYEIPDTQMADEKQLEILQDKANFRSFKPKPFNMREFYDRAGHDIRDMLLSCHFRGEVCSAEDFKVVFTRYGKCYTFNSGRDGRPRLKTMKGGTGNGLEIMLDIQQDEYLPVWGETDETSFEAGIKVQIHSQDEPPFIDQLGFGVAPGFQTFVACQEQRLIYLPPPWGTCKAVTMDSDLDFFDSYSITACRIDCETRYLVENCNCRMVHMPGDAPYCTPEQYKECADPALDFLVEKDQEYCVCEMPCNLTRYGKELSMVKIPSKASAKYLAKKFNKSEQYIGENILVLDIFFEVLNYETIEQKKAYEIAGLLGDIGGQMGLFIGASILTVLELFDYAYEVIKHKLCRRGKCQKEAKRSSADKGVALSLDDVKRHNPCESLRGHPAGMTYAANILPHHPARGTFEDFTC
Procedure: Identification of ASIC Antagonists Using Calcium-Imaging
ASIC1a expressing HEK293 cells are grown in culture medium (DMEM with 10% FBS), in polystyrene culture flasks (175 mm 2) at 37° C. in a humidified atmosphere of 5% CO2. Confluency of cells should be 80-90% on day of plating. Cells are rinsed with 10 ml of PBS and cells are re-suspended by addition of culture medium and trituration with a 25 ml pipette.
The cells are seeded at a density of approximately 1×10^6 cells/ml (100 μl/well) in black-walled, clear bottom, 96-well plates pre-treated with 10 mg/l poly-D-lysin (75 μl/well for ≧30 min). Plated cells are allowed to proliferate for 24 h before loading with dye.
Loading with Fluorescent Calcium Dye Fluo-4/AM
Fluo-4/AM (1 mg, Molecular Probes) is dissolved in 912 μl DMSO. The Fluo-4/AM stock solution (1 mM) is diluted with culture medium to a final concentration of 2 μM (loading solution).
The culture medium is aspirated from the wells, and 50 μl of the Fluo-4/AM loading solution is added to each well. The cells are incubated at 37° C. for 30 min.
After the loading period, the loading solution is aspirated and the cells are washed twice with 100 μl modified Assay Buffer (145 mM NaCl, 5 mM KCl, 5 mM CaCl2, 1 mM MgCl2, 10 mM HEPES, pH 7.4) to remove extracellular dye. Following the second wash, 100 μl modified Assay Buffer is added to each well and the fluorescence is measured in FLIPR™ or FlexStation™ (Molecular Devices, USA), or any other suitable equipment known to the skilled in the art.
Temperature: Room temperature (20-22° C.)
First addition: 50 μl test solution at a rate of 30 μl/sec and a starting height of […]
Second addition: 50 μl MES solution (20 mM, 5 mM final concentration) at a rate of 35 μl/sec and a starting height of 150 μl.
Reading intervals: pre-incubation—10 sec×7 and 3 sec×3 antagonist phase—3 sec×17 and 10 sec×12
Addition plates (compound test plate and MES plate) are placed on the right and left positions in the FLIPR tray, respectively. Cell plates are placed in the middle position and the ASIC1a program is effectuated. FLIPR will then take the appropriate measurements in accordance with the interval settings above. Fluorescence obtained after stimulation is corrected for the mean basal fluorescence (in modified Assay Buffer).
Hit Confirmation and Characterization of Active Substances
The MES-induced peak calcium response, in the presence of test substance, is expressed relatively to the MES response alone. Test substances that block the MES-induced calcium response are re-tested in triplicates. […]

[2] = biological target: T1, ASIC1a; test: Two-electrode voltage clamp of acid-induced currents in Xenopus laevis oocytes; type: cell-based; parameters: expressed in transfected cells; host or cells: Xenopus laevis oocytes, nuclear microinjection of an expression vector such as pCDNA3; details: 50 μM, Xenopus oocytes; read-out: % inh. at 50 μM (Xo)
Procedure: Screening and Bioanalysis of ASIC Antagonists in Xenopus laevis oocytes
This example describes the in vitro assessment of the activity of the compounds of the present invention.
Two-electrode voltage clamp electrophysiological assays in Xenopus laevis oocytes expressing gated ion channels are performed as follows:
Oocytes are surgically removed from adult Xenopus laevis and treated for 2 h at room temperature with 1 mg/ml type I collagenase (Sigma) in Barth's solution under mild agitation. Selected oocytes at stage IV-V are defolliculated manually before nuclear microinjection of 2.5-5 ng of a suitable expression vector, such as pCDNA3, comprising the nucleotide sequence encoding a gated ion channel subunit protein. In such an experiment, the oocytes express homomultimeric proton-gated ion channels on their surface. In an alternate experiment, one, two, three or more vectors comprising the coding sequences for distinct gated ion channel subunits are co-injected in the oocyte nuclei. In the latter case, oocytes express heteromultimeric proton-gated ion channels. For example, ASIC2a and/or ASIC3 subunits in pcDNA3 vector are co-injected at a 1:1 cDNA ratio. After 2-4 days of expression at 19° C. in Barth's solution containing […] gentamicin and 1.8 mM CaCl2, gated ion channels are activated by applying an acidic solution (pH<7) and currents are recorded in a two electrode voltage-clamp configuration, using an OC-725B amplifier (Warner Instruments). Currents are acquired and digitized at 500 Hz on an Apple Imac G3 computer with an A/D NB-MIO-16XL interface (National Instruments) and recorded traces are post-filtered at 100 Hz in Axograph (Axon Instruments) (Neher, E. and Sakmann, B. (1976) Nature 260:799-802). Once impaled with the microelectrodes, oocytes are continuously superfused at 10-12 ml/min with a modified Ringer's solution containing 97 mM NaCl, 2 mM KCl, 1.8 mM CaCl2, and 10 mM HEPES brought to pH 7.4 with NaOH (Control Ringer). Test Ringer solution is prepared by replacing HEPES with MES and adjusting the pH to the desired acidic value. Compounds of the present invention are prepared in both the Control and Test Ringer solutions and applied to oocytes at room temperature through a computer-controlled switching valve system. Osmolarity of all solutions is adjusted to 235 mOsm with choline chloride. Similarly, recordings can also be acquired in an automated multichannel oocytes system as the OpusExpress™ (Molecular Devices, Sunnyvale, USA).
FIGS. 1A and 2A illustrate the inhibitory effects of Compounds 12 and 44 on acid-induced activation of recombinant homomeric hASIC1a channels. FIGS. 1A and 2A show the dose-dependent inhibition of the acid-induced hASIC1a currents recorded from Xenopus laevis oocytes using the two-electrode voltage clamp method (as described in this example) in the absence or presence of increasing concentration of the compounds.

[3] = MES-induced calcium response, ASIC1a expressing HEK293 cells, read-out: IC50 (FLIPR)

Structure (SMILES): CCN1CCc2c(-c3ccccc3)cc(C#N)c(N(C)C)c2C1 [Compound 50]
- IC50 [1, 3]: 10 to 20 µM
- inhibition at 50 µM [2]: > 50%

Structure (SMILES): CCN1CCc2c(-c3ccccc3OC)cc(C#N)c(N)c2C1 [Compound 45]
- IC50 [1, 3]: 10 to 20 µM
- inhibition at 50 µM [2]: > 50%

Structure (SMILES): CCN1CCc2c(-c3cc(C)cc(C)c3)cc(C#N)c(N)c2C1 [Compound 48]
- IC50 [1]: < 10 µM
- inhibition at 50 µM [2]: > 50%
